Patent US8901089B2, “Composition comprising an amorphous non-crystalline glass form of roxithromycin” (North-West University, priority 2009, dated 2014)
Converted amounts (≈) assume the structure as drawn.

Columns and labels:
Assay type in all cases: physicochemical
[1] = Chemical stability by HPLC analysis; details: after solubility test
Protocol: (§1) The concentrations of the five filtrates of Form-II and roxithromycin raw material respectively are determined by HPLC (high performance liquid chromatography) assay. The HPLC assay is performed utilising a mobile phase of 30 g/L ammonium dihydrogen phosphate buffer at pH 5.3. The pH is adjusted with sodium hydroxide solution and 310 ml of the buffer solution is mixed with 690 ml acetonitrile. A Luna C18 150 mm×4.6 mm column is used with a flow rate of 1.0 ml/min and a wavelength of 205 nm. Validation of this method provides a linear regression r^2 of 0.9998.

[2] = Exposure of Form-II to 50 degrees Celsius at zero and 75% relative humidity (microscopy); details: 18 days
From the text: Form-II was further subjected to a temperature of 50 degrees Celsius at respectively zero (FIG. 3) and 75% relative humidity (FIG. 4) for 18 days.

[3] = Solubility of Form-II and roxithromycin raw material in three media, HPLC assay; details: for solubility at 24 h: 37 °C, thermodynamic from solid
Protocol: In further analysis of the novel Form-II, five test tubes with 100 mg of Form-II and 10 ml of one of the following solubility mediums respectively, namely, acetate buffer (pH 4.5), phosphate buffer (pH 6.8) and distilled water were filled.
The test tubes are then fixed to a rotating axis (54 rpm) and submerged in a water bath at 37 degrees Celsius±2 degrees Celsius for twenty-four hours. The contents of the test tubes are filtered through a 0.45 μm filter and subsequently the respective filtrates are diluted.
as §1

[4] = Vapour sorption experiments (moisture isotherm)
From the text: The sharp increase is attributed to the condensation of water on the sample holder.

Row | Structure (SMILES) | chemical stability (HPLC analysis) [1] | crystallisation ([2]; 75% relative humidity) | crystallisation ([2]; zero relative humidity) | solubility ([3]; acetate buffer (pH 4.5), 37 degrees Celsius, twenty-four hours) [µg/mL] | solubility ([3]; distilled water, 37 degrees Celsius, twenty-four hours) [µg/mL] | more soluble than monohydrated roxithromycin (theoretical solubility of 1.8 μg/ml) ([3]; in water) [%] | solubility ([3]; phosphate buffer (pH 6.8), 37 degrees Celsius, twenty-four hours) [µg/mL] | increase in weight (moisture isotherm) ([4]; from 70 to 90% RH, attributed to condensation of water on the sample holder) | weight loss upon decreasing the humidity ([4]; from 90 to 0% RH, returned to starting weight) [%] | increase in weight (moisture isotherm) ([4]; relative humidity up to 60% RH) | solid state after high levels of moisture ([4]; vapour sorption up to 90% RH) | solubility at 24 h ([3]; pH 4.5, aqueous buffer) [µg/mL] | solubility at 24 h ([3]; pH 6.8, aqueous buffer) [µg/mL] | solubility at 24 h ([3]; water) [µg/mL] | solubility ([3]; pH 4.5, aqueous buffer) [µg/mL] | solubility ([3]; pH 6.8, aqueous buffer) [µg/mL] | solubility ([3]; water) [µg/mL]
1 | CC[C@H]1OC(=O)[C@H](C)[C@@H](O[C@H]2C[C@@](C)(OC)[C@@H](O)[C@H](C)O2)[C@H](C)[C@@H](O[C@@H]2O[C@H](C)C[C@H](N(C)C)[C@H]2O)[C@](C)(O)C[C@@H](C)C(=NOCOCCOC)[C@H](C)[C@@H](O)[C@]1(C)O [Form-II, 3R,4S,5S,6R,7R,9R,11S,12R,13S,14R-6-[(2S,3R,4S,6R)-4-dimethylamino-3-hydroxy-6-methyloxan-2-yl]oxy-14-ethyl-7,12,13-trihydroxy-4-[(2R,4R,5S,6S)-5-hydroxy-4-methoxy-4,6-dimethyloxan-2-yl]oxy-10-(2-methoxyethoxymethoxyimino)-3,5,7,9,11,13-hexamethyl-1-oxacyclotetradecan-2-one] | chemically stable | no crystallisation | no crystallisation | 762.71 ± 2.6 (≈ 911 µM) | 32.86 ± 3.5 (≈ 39.3 µM) | 1798 | 134.4 ± 4.9 (≈ 161 µM) | up to 4% | 4 | approximately 1.5% | remained amorphous | – | – | – | – | – | –
2 | CC[C@H]1OC(=O)[C@H](C)[C@@H](O[C@H]2C[C@@](C)(OC)[C@@H](O)[C@H](C)O2)[C@H](C)[C@@H](O[C@@H]2O[C@H](C)C[C@H](N(C)C)[C@H]2O)[C@](C)(O)C[C@@H](C)/C(=N\OCOCCOC)[C@H](C)[C@@H](O)[C@]1(C)O [roxithromycin raw material, roxithromycin] | – | – | – | – | – | – | – | – | – | – | – | 370 ± 8.3 (≈ 442 µM) | 74.8 ± 5.1 (≈ 89.4 µM) | 1.7 ± 0.6 (≈ 2.03 µM) | 370 (≈ 442 µM) | 74.8 (≈ 89.4 µM) | 1.8 (≈ 2.15 µM)
